# Results reported in patent US7199100B2, “Cyclic peptides, method for preparing and use as angiogenesis inhibitors or activator” (Commissariat a l'Energie Atomique, priority 2000, dated 2007).
# Square brackets hold non-standard residues; d marks the D form. Peptide text beside a SMILES is read from it.
# Assays:
# KDR receptor (VEGFR2) = target: T1, KDR receptor (VEGFR2) (Homo sapiens, UniProt P35968); experiment: Inhibition of 125I-VEGF binding to KDR receptor on CHOm VEGFR2 cells; settings: CHOm VEGFR2 cells, 125I-VEGF
# T1 construct: expressed in transfected cells; host or cells: heparan sulfate deficient Chinese hamster ovary cells (CHOm VEGFR2), VEGFR2 cDNA in psV-7d vector
# Protocol: The P1 to P24 peptides are tested as concerns their property of inhibition of the binding of VEGF to its KDR receptor.
# For these tests, heparin sulfate deficient Chinese hamster ovarian cells that are transfected with an expression vector containing VEGFR2cDnA (CHOm VEGFR2 cells) are used.
# The CHOm VEGFR2 cells are routinely cultured in Dulbecco modified Eagle medium and supplemented with 10% (v/v) fetal calf serum (FCS), 50 U/ml penicillin, 50 μg/ml streptomycin, 1 mg/ml glucose and 2 mM L-glutamine at 37° C. in a 5% CO2 atmosphere.
# The subconfluent flasks are transferred at 4° C. […] At the end of the incubation period, the cells are washed 3 times using iced PBS and solubized in 1 mL of buffer with 2% Triton X 100, 10% glycol, 1 mg/mL bovine serum albumin BSA. The radioactivity rate bound to the cells is counted in an MR-250 Kontron gamma counter. […] Specific binding is calculated by subtracting non-specific binding from total binding.
# These assays are continued using the cyclopeptides of interest and two linear peptides as controls for an inhibition analysis as a function of dose.
# endothelial cells [1] = experiment: VEGF-stimulated endothelial cell migration (monolayer denudation); assay type: cell-based; settings: 10 ng/mL VEGF
# Protocol: Cellular migration is measured according to the method described by Sato and Rifkin (J. Cell Biol., September, 1988, (107 (3): 1199–205) [17] with modifications. 100,000 endothelial cells are placed in 35 mm culture flasks in DMEM medium containing 10% fetal calf serum. On confluence, the medium is replaced by DMEM medium without serum and the cells are incubated overnight. On the next day, denudation is done artificially in the monolayer using a sterile pipette tip. A series of digital photographs is taken and the border of denudation is marked by a line using the BiocomVisionLab2000 program. The flasks are then rinsed and incubated with 10 ng/mL VEGF in the presence or absence of peptide. After 18 hours of incubation a new series of photographs is taken and the before and after stimulation images are superimposed. The cells situated beyond the border of denudation are counted.
# endothelial cells [2] = experiment: VEGF-stimulated endothelial cell proliferation (cell count); assay type: cell-based; settings: 10 ng/mL of VEGF
# Protocol: Cellular proliferation is measured by cell count. 7,000 endothelial cells are placed in the wells of 24-well plates (Costar) in DMEM medium containing newborn bovine serum. […] Two days later, the cells area once again stimulated by VEGF in the presence or absence of different concentrations of peptide. At the fifth day, the cells are trypsinized and counted using a Coulter counter.
# ERK2 (p42) = experiment: VEGF-induced phosphorylation of ERK2 (p42), Western blot, capillary endothelial cells; assay type: cell-based; settings: p42 and p44 together, 10 ng/mL of VEGF
# Protocol: Phosphorylation of ERK1 (p44) and ERK2 (p42) is measured by Western blot using anti p42/p44 antibodies (New England Biolabs). The capillary endothelial cells are cultivated in DMEM containing 10% newborn bovine serum. Subconfluent cultures are then deprived of serum over a period of 24 hours. The peptides are then added at specific concentrations over 5 minutes to the cells in the presence or absence of 10 ng/mL of VEGF. The cells are then removed from the culture flasks and lysed for 20 minutes over ice in lysis buffer containing […], pH 7.4, 75 mM NaCl, 1 mM EDTA, 1% Nonidet P-40 and 0.01% of SDS. The insoluble material is removed by centrifugation and 50 μg/mL of protein extract are separated by polyacrylamide gel electrophoresis containing sodium dodecyl sulfate (SDS) under denaturing conditions. The proteins are then transferred from the gel onto a nitrocellulose membrane (Amersham Pharmacia Biotech, Orsay) using a transfer apparatus (semi-dry transfer, Bio-Rad, Irvy-sur-Seine, France). […] The results are quantified using the Image Quant program (Molecular Dynamics).
# The assays were done as indicated. […] The degree of phosphorylation is estimated after quantification of the signals obtained using autoradiographic films and the results are expressed in percent inhibition relative to the signal obtained using 10 ng/mL of VEGF alone.
# T1 sequence (P35968 20-1356, species assumed): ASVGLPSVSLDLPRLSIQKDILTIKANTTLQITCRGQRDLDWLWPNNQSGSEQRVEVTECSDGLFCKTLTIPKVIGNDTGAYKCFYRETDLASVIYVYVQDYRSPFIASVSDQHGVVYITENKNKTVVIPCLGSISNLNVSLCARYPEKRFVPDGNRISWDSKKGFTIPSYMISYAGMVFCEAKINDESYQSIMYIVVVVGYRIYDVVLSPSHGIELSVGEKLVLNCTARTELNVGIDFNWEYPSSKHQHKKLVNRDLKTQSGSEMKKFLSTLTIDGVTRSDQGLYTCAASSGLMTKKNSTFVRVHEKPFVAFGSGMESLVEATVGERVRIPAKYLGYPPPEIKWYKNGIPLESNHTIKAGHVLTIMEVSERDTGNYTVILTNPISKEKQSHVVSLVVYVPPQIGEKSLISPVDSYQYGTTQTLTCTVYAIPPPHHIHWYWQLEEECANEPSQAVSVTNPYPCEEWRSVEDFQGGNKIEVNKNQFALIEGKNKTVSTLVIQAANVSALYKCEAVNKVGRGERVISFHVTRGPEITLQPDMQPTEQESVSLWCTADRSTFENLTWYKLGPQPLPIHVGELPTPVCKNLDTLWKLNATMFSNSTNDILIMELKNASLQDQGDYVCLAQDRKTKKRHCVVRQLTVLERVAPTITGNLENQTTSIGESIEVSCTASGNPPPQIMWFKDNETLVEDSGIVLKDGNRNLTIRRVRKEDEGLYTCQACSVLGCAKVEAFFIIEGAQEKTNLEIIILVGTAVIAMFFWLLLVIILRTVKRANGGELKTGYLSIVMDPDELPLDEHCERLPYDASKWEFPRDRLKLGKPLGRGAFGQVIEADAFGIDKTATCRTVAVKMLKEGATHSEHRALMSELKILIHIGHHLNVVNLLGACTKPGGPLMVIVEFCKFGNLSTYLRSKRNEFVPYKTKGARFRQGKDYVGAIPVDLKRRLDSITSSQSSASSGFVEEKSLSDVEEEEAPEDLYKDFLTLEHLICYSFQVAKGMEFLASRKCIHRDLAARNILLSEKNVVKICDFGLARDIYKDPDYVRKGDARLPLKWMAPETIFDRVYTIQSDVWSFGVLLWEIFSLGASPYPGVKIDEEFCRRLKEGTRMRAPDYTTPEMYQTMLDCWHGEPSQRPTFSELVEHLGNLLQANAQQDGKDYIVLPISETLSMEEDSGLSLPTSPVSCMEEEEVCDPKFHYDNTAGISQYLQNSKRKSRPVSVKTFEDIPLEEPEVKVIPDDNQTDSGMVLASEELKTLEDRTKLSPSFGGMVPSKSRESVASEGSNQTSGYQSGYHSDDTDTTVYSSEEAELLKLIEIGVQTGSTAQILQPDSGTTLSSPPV
smiles,measurement,setting,value
CC[C@H](C)[C@@H]1NC(=O)[C@H](Cc2c[nH]cn2)NC(=O)[C@H](CCC(N)=O)NC(=O)CNC(=O)[C@H](CCC(N)=O)NC(=O)[C@H](Cc2c[nH]cn2)NC(=O)[C@@H]2CCCN2C(=O)[C@H](CCCCN)NC(=O)[C@H]([C@@H](C)CC)NC(=O)[C@H](CCCNC(=N)N)NC(=O)[C@H](CCSC)NC(=O)[C@H]([C@@H](C)CC)NC(=O)[C@H](CCC(N)=O)NC(=O)[C@@H]2CCCN2C(=O)[C@@H](Cc2ccccc2)NC(=O)[C@H](CCC(=O)O)NC(=O)CNC1=O [Peptide P11] (cyclo([dF]PQIMRIKPHQGQHIGE)),inhibiting binding of VEGF to the KDR receptor (in words),KDR receptor (VEGFR2),very effective
same,inhibition of cellular migration (in words),endothelial cells [1],strongly inhibits
same,inhibition of cellular proliferation (in words),endothelial cells [2],strong inhibition
same,inhibition of phosphorylation of p42/p44 (in words),ERK2 (p42),strongly inhibits
